What is called Ki is the equilibrium dissociation constant of an inhibitor or competing ligand from its target. Read a low Ki as higher affinity. For orientation: IC50 means the midpoint of a concentration-inhibition curve. For orientation: Kd means the constant that tells how readily two partners part at equilibrium.

Data set [1] has as its target T1, Bcl-xL(ΔC) WT (Homo sapiens, UniProt Q07817).
T1 construct: inferred from Ni-NTA purification and the pET22b(+) NdeI/XhoI cloning); made in house; host or cells: Escherichia coli BL21(DE3) carrying pUB520
Put plainly: Pore-forming activity, calcein release from liposomes. It is filed as biochemical. How it is done:
(§1) Large unilamellar vesicles composed of 60% dioleoylphophatidylcholine and 40% dioleoylphosphatidylglycerol were prepared by the extrusion method of Mayer et al., supra. Lipid stocks, in chloroform, were mixed and dried under a stream of nitrogen gas. The lipid was resuspended by vortexing for 30 min in a solution of 40 mM calcein (Molecular Probes), 25 mM KCl, and 10 mM KOAc, pH 5.0. After 10 freeze-thaw cycles, the lipid suspension was extruded through two 0.1 μm pore diameter Nucleopore filters. Non-entrapped dye was removed by passage over a Sephadex G10 column (Amersham Biosciences). Lipid concentration was measured using the ammonium ferrothiocyanate method (Stewart, Anal. Biochem. 104:10-14, 1980).
(§2) For pore assays, recombinant truncated Bcl-2 family protein or mutant protein (Bcl-xL(ΔC)) (500 nM) was added to large unilamellar vesicles (60 μM lipid concentration) in 100 mM KCl, 10 mM KOAc, pH 5.0, and fluorescence measured (490 nm excitation, 520 nm emission) with a Fluoromax-3 spectrophotometer. Peptides of the BH3 domain were incubated with the BCl-xL(ΔC) 5 min prior to mixing with liposomes. AA1 was added to liposomes 1 min before adding the Bcl-xL(ΔC) protein. Samples for kinetic assays were analyzed in a thermostatted cuvette at 37° C. with constant stirring. Dose responses were measured in black quartz microplates (Hellma) at room temperature. Calcein release was expressed as percentage of maximum release with detergent lysis (0.1% Triton X-100).

The target in data set [2] is T2, Bcl-xL(ΔC) (Homo sapiens, UniProt Q07817).
T2 construct: made in house; host or cells: Escherichia coli BL21(DE3) carrying pUB520
T2 sequence (Q07817 1-211 limits assumed, stated change not applied): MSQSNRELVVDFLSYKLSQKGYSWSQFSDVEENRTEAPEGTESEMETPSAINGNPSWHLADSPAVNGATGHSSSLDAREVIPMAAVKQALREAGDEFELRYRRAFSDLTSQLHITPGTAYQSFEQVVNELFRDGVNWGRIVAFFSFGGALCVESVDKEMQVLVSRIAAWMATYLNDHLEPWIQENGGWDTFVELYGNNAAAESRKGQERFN
Put plainly: Displacement of AA bound to Bcl-xL(ΔC). Format: binding. How it is done: The non-peptide BCl-xL inhibitors, BH3I-1 and BH3I-2, interact with Phe-97 and Ala-142 in the BCl-xL hydrophobic pocket by NMR chemical shift perturbation (Degterev et al., Nat. Cell Biol. 3:173-182, 2001; Lugovskoy et al., J. Amer. Chem. Soc. 124:1234-1240, 2002). It was determined that BH3I-1 competes with AA1 for Bcl-xL(ΔC) binding.

In data set [3] the target is T3, Bcl-xL(ΔC) F97W (Homo sapiens, UniProt Q07817, F97W).
T3 construct: inferred from Ni-NTA purification and the pET22b(+) NdeI/XhoI cloning); made in house; host or cells: Escherichia coli BL21(DE3) carrying pUB520
T3 sequence (Q07817 1-211 F97W limits assumed): as the sequence (Q07817 1-211 limits assumed, stated change not applied) above, with F97W counted along it
Put plainly: Pore-forming activity, calcein release from liposomes. Format: biochemical. The following applies: Bcl-xL(ΔC) 500 nM; read-out: Pore Inhibition IC50. How it is done:
as §1, §2

Data set [4] concerns the target T4, Bcl-xL(ΔC) F146L (Homo sapiens, UniProt Q07817, F146L).
T4 construct: inferred from Ni-NTA purification and the pET22b(+) NdeI/XhoI cloning); made in house; host or cells: Escherichia coli BL21(DE3) carrying pUB520
Described as above. It is filed as biochemical. Conditions: Bcl-xL(ΔC) 500 nM; read-out: Pore Inhibition IC50. Here is the method: as §1, §2

Data set [5] deals with T5, Bcl-xL(ΔC) E92L (Homo sapiens, UniProt Q07817, E92L).
T5 construct: inferred from Ni-NTA purification and the pET22b(+) NdeI/XhoI cloning); made in house; host or cells: Escherichia coli BL21(DE3) carrying pUB520
T5 sequence (Q07817 1-211 E92L limits assumed): as the sequence (Q07817 1-211 limits assumed, stated change not applied) above, with E92L counted along it
The data set is described as above. Format: biochemical. Conditions: Bcl-xL(ΔC) 500 nM; read-out: Pore Inhibition IC50. Here is the method: as §1, §2

The test system of data set [6] is TAMH cells over-expressing Bcl-xL E92L. Put plainly: Cytotoxicity (Alamar Blue) in Bcl-xL transfectants. Format: cell-based, murine. Conditions: 24 h. Here is the method:
(§3) TAMH cells were transfected with DNA encoding each of the mutant BCl-xL proteins by lipofection (See Example 1 for method). For analysis of BCl-xL expression, 20 μg of cell protein was separated by 20% SDS-PAGE and transferred to nitrocellulose membranes. Immunodetection of BCl-xL was carried out using rabbit anti-Bcl-xL antibody and Protein A/horseradish peroxidase conjugate, followed by chemiluminescent detection. Cells were grown to about 80% confluence in 96-well plates followed by addition of 100 μl of 2X AA1 or staurosporine (STS) solution in complete medium. STS is a natural product originally isolated from the bacterium Streptomyces and found to be capable of inducing apoptosis in certain cells and which induction of apoptosis could be blocked by the expression of a Bcl-2 family protein. Cell viability was determined spectrophotometrically after 24 h treatment as the ratio of reduced and oxidized Alamar Blue (BIOSOURCE) at 570 nm and 600 nm, respectively. All results were normalized against DMSO controls. LD50 values were calculated by non-linear regression analysis using Prism software (Graphpad).

For data set [7], the system named is TAMH cells over-expressing Bcl-xL A142L. In words: Cytotoxicity (Alamar Blue) in Bcl-xL transfectants. It is filed as cell-based, murine. How it is done: as §3
On the technique in general: Alamar Blue is a resazurin reagent that responds to reducing activity.

The subject of data set [8] is TAMH cells over-expressing Bcl-xL F146L. Put plainly: Cytotoxicity (Alamar Blue) in Bcl-xL transfectants. Format: cell-based, murine. How it is done:
as §3

In data set [9] the test system is TAMH cells over-expressing Bcl-xL WT. Put plainly: Cytotoxicity (Alamar Blue) in Bcl-xL transfectants. It is filed as cell-based, murine. The following applies: 24 h. How it is done: as §3
Data set [10] concerns TAMH cells over-expressing Bcl-xL F97W. In words: Cytotoxicity (Alamar Blue) in Bcl-xL transfectants. Format: cell-based, murine. The following applies: 24 h. Here is the method: as §3
For data set [11], the target named is T6, Bcl-xL(ΔC) A142L (Homo sapiens, UniProt Q07817, A142L).
T6 construct: inferred from Ni-NTA purification and the pET22b(+) NdeI/XhoI cloning); made in house; host or cells: Escherichia coli BL21(DE3) carrying pUB520
T6 sequence (Q07817 1-211 A142L limits assumed): as the sequence (Q07817 1-211 limits assumed, stated change not applied) above, with A142L counted along it
Put plainly: Pore-forming activity, calcein release from liposomes. Format: biochemical. Conditions: Bcl-xL(ΔC) 500 nM; read-out: Pore Inhibition IC50. Here is the method:
as §1
as §2, with “Peptides of the BH3 domain were incubated with the BCl-xL(ΔC) 5 min prior to mixing with liposomes. AA1 was added to liposomes 1 min before adding the Bcl-xL(ΔC) protein.” left out, “X-100). […]” for “X-100).”

In data set [12] the target is T6, Bcl-xL(ΔC) A142L. In words: Fluorescence anisotropy binding. How it is done: (§4) A pET22b (Novagen) vector coding for BCl-xL(ΔC), a mutant Bcl-xL protein without the COOH terminal region, was transformed into Escherichia coli BL21(DE3) cells that carried pUB520 (encoding human Arg tRNA) and grown to an A600 of 0.6. Protein expression was induced with 0.1 mM isopropyl β-D-thiogalactoside at 30° C. The cells were resuspended 1:5 (w/v) in PEB buffer (50 mM Tris, pH 8.0, 200 mM NaCl, 0.2 mM phenylmethylsulfonyl fluoride, 5 mM β-mercaptoethanol, 5 mM imidazole, and 1% (v/v) glycerol), and stirred for 20 min at 4° C. Cells were disrupted by pulse sonication, and the soluble fraction was loaded onto a nickel-nitrilotriacetic acid column (Qiagen) equilibrated with PEB buffer. The column was washed with 40 mM imidazole, eluted with 200 mM imidazole, and the protein fractions were pooled and dialyzed (50 mM Tris, pH 8.0, 200 mM NaCl, 0.2 mM phenylmethylsulfonyl fluoride) at 4° C. overnight. The dialyzed protein was concentrated to 10 mg/ml and fractionated on a Superdex 75 gel filtration column (Amersham Biosciences). The fractions containing Bcl-xL(ΔC) protein were pooled, exchanged into low-salt buffer (same as for previous dialysis buffer, except 50 mM NaCI), and loaded onto a MonoQ anion exchange column (Amersham Biosciences). Protein was eluted from the column with increasing NaCl gradient, pooled and concentrated.
(§5) All reagents were prepared in 0.2 μm-filtered PBS with fresh 1 mM DTT. […] Slit widths were set at 10 nm for both excitation and emission.
(Polarisation of emitted light reports the rotation of a fluorescent probe.)

Data set [13] addresses T3, Bcl-xL(ΔC) F97W. In words: Fluorescence anisotropy binding. How it is done:
as §4, §5

The target of data set [14] is T1, Bcl-xL(ΔC) WT. In words: Fluorescence anisotropy binding. Conditions: AA1 200 nM or FITC-labeled BH3 peptide 25 nM; read-out: Dissociation Constant KD. How it is done: as §4, §5
Data set [15] has as its target T4, Bcl-xL(ΔC) F146L. In words: Fluorescence anisotropy binding. Here is the method: as §4, §5
Data set [16] has as its target T5, Bcl-xL(ΔC) E92L. In words: Fluorescence anisotropy binding. The following applies: AA1 200 nM or FITC-labeled BH3 peptide 25 nM; read-out: Dissociation Constant KD. Here is the method: as §4, §5
Setting [17] is: AA1 200 nM or FITC-labeled BH3 peptide 25 nM, read-out: Dissociation Constant KD.

Structures are written as SMILES.

T4 sequence (Q07817 1-211 F146L limits assumed): as the sequence (Q07817 1-211 limits assumed, stated change not applied) above, with F146L counted along it
T1 sequence (Q07817 1-211 limits assumed, stated change not applied): as the sequence (Q07817 1-211 limits assumed, stated change not applied) above

With `CC(C)C(C(=O)O)N1C(=O)/C(=C\c2ccc(Br)cc2)SC1=S` (centres unmarked) [BH3I-1], the “effect on Bcl-xL pore-forming activity” value in data set [1] is recorded as “no effect”. In addition, the inhibition constant Ki in data set [2] came to 1870 ± 617 nM.
In the case of `CCCCCC[C@H]1C(=O)O[C@H](C)[C@H](NC(=O)c2cccc(NC=O)c2O)C(=O)O[C@@H](C)[C@@H]1OC(=O)CC(C)C` [antimycin A1], the IC50 in [3] is 3.45 ± 0.34 µM; in data set [1] (Bcl-xL(ΔC) 500 nM, read-out: Pore Inhibition IC50) it was 2030 ± 240 nM; in [4], 3.6 ± 0.4 µM; in [5], 2470 ± 300 nM; in [11], 4.1 ± 1.24 µM. Moreover, the “effect on Bcl-xL pore-forming activity” value in data set [1] is “inhibited”. The “Cytotoxicity LD50” value in data set [6] is 1.72 ± 0.3 µM; in [6] (listed as AA1), 1.72 ± 0.34^2 μM; in data set [7] (24 h) it was above 10 µM; in data set [8] (24 h), above 10 µM; in data set [9], 0.47 µM; in data set [9] (listed as AA1) it was 0.47 ± 0.07^ μM. Further, the “Cytotoxicity LD50” value was 5.12 ± 0.9 µM in [10] and 5.12 ± 0.94^2 μM in [10] (listed as AA1). Besides, the “sensitivity to antimycin A1” value in data set [7] and in [8] was “completely insensitive” in each case. The “increase in Kd compared with Bcl-xL wt(ΔC)” value is recorded as 20 fold in data set [12] and 8 fold in data set [13]. For the same compound, the Kd amounted to 41.8 ± 21.4 µM in data set [12] (setting [17]); 17.6 ± 5.2 µM in data set [13] (setting [17]); 2360 ± 1410 nM in data set [14]; 20 ± 9.4 µM in [15] (setting [17]); 5.06 ± 0.86 µM in data set [16]. This compound also showed a decrease in affinity in data set [15] of around 10 fold.

These data come from patent US20050239873A1 (priority 1999, published 2005).
